Test results published in patent publication US20220370553A1, “PREBIOTIC-INDUCED ANTI-TUMOR IMMUNITY” (Sanford Burnham Prebys Medical Discovery Institute, priority 2019, published 2022).

Experiments:
OT-I CD8+ T cells = experiment: In vivo OT-I T cell assay with B16-OVA melanoma cells; design: species or system C57BL/6 mice; details: mucin-treated vs control mice
Description: Right dot plots show gating of CD45.1+CD8+ cells (n=6). FIG. 4B Quantification of CD45.1+OT-I CD8+ T cell number in the tumor-draining lymph nodes (TdLN) and non-draining lymph nodes (ndLN) of WT C57BL/6 mice CD45.2+ mice that were injected with B16-OVA melanoma cells (n=10). Graphs show the mean s.e.m. *P<0.05, by two-tailed t-test or Mann-Whitney U test.
In vivo OT-I T cell proliferation assay. […] After 24 h, the mice were injected s.c. with 1×10^6 B16-OVA melanoma cells and the mice were left for 7 days. The spleen, tumor-draining lymph nodes, and non-draining lymph nodes were harvested and analyzed by flow cytometry. The proliferation of OT-1 CD8+ T cells was assessed by analysis of CFSE dilution within the population by gating on CD45.1+CD8+ T cells.
To assess the activation and homing of tumor-specific T cells in prebiotic-treated mice, an adoptive transfer model was used with OVA-specific OT-I transgenic T cells. OVA-specific OT-I CD8+, CD45.1+ T cells were transferred into untreated or mucin-treated WT mice. Mice were injected with OVA-expressing B16F10 tumor cells, and the frequency of OVA-specific OT-I T cells was monitoring in tumor draining and non-tumor-draining lymph nodes. OT-I CD8+ T cells were more abundant in the tumor-draining lymph nodes of mucin-treated mice, compared with control mice (FIG. 4A-B).

[1] = system: MC-38 mouse colorectal cancer cells; experiment: Growth of MC-38 colorectal cancer tumors in prebiotic-fed mice; assay type: in vivo, C57BL/6 mice; details: 3% mucin in drinking water or 15% inulin diet from two weeks prior to inoculation
Excerpt: MC-38 mouse colorectal cancer cells (1×10^6) were inoculated, and diets were continued after inoculation.

[2] = system: bone marrow-derived dendritic cells (BMDCs); experiment: Activation of bone marrow-derived dendritic cells in vitro; assay type: cell-based, murine; details: 24 h, 0.05 and 0.5 mg/ml
Excerpt: (§1) Data are representative of two independent experiments. Graphs show the mean±s.e.m. *P<0.05, **P<0.005, ***P<0.001, ****P<0.0001 one-way ANOVA with Tukey's correction.
Bone Marrow-Derived Dendritic Cells (BMDCs).

Yumm1.5 tumors = experiment: Growth of Yumm1.5 melanoma tumors in prebiotic-fed mice; assay type: in vivo, C57BL/6 mice; details: mucin 3% in drinking water or inulin 15% w/w chow from 2 weeks prior to inoculation of 1×10^6 Yumm1.5 cells
Excerpt: FIG. 2B, Quantification of tumor-infiltrating effector (CD44hi) CD4+, CD8+ and CD45+ T cells from mice treated as in FIG. 2A (n=10). FIG. 2C, Quantification of tumor-infiltrating, IFN-g-producing CD4+ T cells from mice treated as in FIG. 2A (n=10). FIG. 2D, Quantification of tumor-infiltrating total DCs and subsets in mice treated as in FIG. 2A (n=10). FIG. 2E, MFI of MHC class I and MHC class II on DCs from the tumors of mice treated as in FIG. 2A (n=10). […] Graphs show the mean s.e.m. *P<0.05, **P<0.005, ***P<0.001,****P<0.0001 by two-way ANOVA with Tukey's correction (A) and by one-way ANOVA with Tukey's correction (B-E).

Bacteroides spp. = experiment: Anaerobic fecal cultures with 1% prebiotic, 16S rDNA quantification; assay type: cell-based; details: fecal cultures of 12 healthy human subjects, 3-4 days at 37° C.
Description: Fecal samples derived from 12 healthy human subjects were cultivated in the presence or absence of 1% prebiotic. 16S rDNA sequences corresponding to Bifidobacterium, Bacteroides and Akkermansia muciniphila were quantified. Data are representative of three independent experiments. Graphs show the mean±s.e.m. *P<0.05, **P<0.005, ***P<0.001, ****P<0.0001 by one-way ANOVA with Tukey's correction.
Anaerobic fecal cultures. […] Anaerobic cultures (9% H2, 81% N2) were grown statically for 3-4 days at 37° C. and grown to approximate saturation.
Chemically-defined medium (CDM). CDM contains 50 mM HEPES, 2.2 mM KH2PO4, 10 mM Na2HPO4, 60 mM NaHCO3, 4 mM of each amino acid, except leucine (15 mM), 10 mL ATCC, Trace Mineral Supplement. CDM contained nucleoside bases (100 mg/L), inosine, xanthine, adenine, guanine, cytosine, thymidine and uracil (400 mg/L). CDM contained choline (100 mg/L), ascorbic acid (500 mg/L), lipoic acid (2 mg/L), hemin (1.2 mg/L) and myo-inositol (400 mg/L). Resazurin (1 mg/L) was added to visually monitor dissolved oxygen. The pH of the media was adjusted to 7.4.
Fecal samples derived from 12 healthy, vegetarian human subjects were cultivated in a chemically-defined medium the presence or absence of 1% prebiotic. Anaerobic cultures (9% H2, 81% N2) were grown statically for 3-4 days at 37° C. and grown to approximate saturation.

CD8+ T cells = experiment: qRT-PCR of cytokine and chemokine mRNAs in CD8+ T cells in vitro; assay type: cell-based, mice; details: 0.05 or 0.5 mg/ml in vitro; in some conditions
Excerpt: as §1
RNA extraction and qRT-PCR analyses. Total RNA was extracted from tumor samples individually using the RNeasy Fibrous Tissue Midi kit (QIAGEN) or cells treated as indicated using High Capacity Reverse Transcriptase kits (Invitrogen) according to the manufacturer's protocol. Purity and concentration of extracted RNA were checked and quantified by reading at 260 and 280 nm in a NanoDrop spectrophotometer (Thermo Fisher). The qRT-PCR analyses were performed using Syber Green RT-PCR kits (Invitrogen) on a Bio-Rad CFX Connect Real-Time system. Expression levels normalized to 18S or Tubb5 controls.

## mucin
OT-I CD8+ T cells
  OT-I CD8+ T cells in tumor-draining lymph nodes: more abundant
[1]
  growth of colon cancer MC-38 tumors: not
[2]
  CD40, CD80, MHC I and MHC II on BMDCs: increased
Yumm1.5 tumors
  melanoma tumor growth: attenuated
Bacteroides spp.
  relative abundance of Bacteroides spp.: increased
CD8+ T cells
  expression of Granzyme B, CCL4, and CCL5 in CD8+ T cells: enhanced expression
